Molecules are shown by their SMILES.

This note sets out measurements from US20220175766A1, “COMPOSITIONS AND METHODS OF TREATMENT” (GB004, Inc., priority 2019, published 2022).

A short description of the data set: Phase 1a single ascending dose study (oral solution): safety and tolerability. The class given is in vivo, human. The note with it: all doses evaluated (20-240 mg) in 50 mL or 100 mL vehicle. An excerpt:
The primary objective of the study was to assess the safety and tolerability of ascending dose levels of Compound 1 after single oral dose administration. The safety endpoints included AE incidence, clinically significant changes in vital signs, ECG parameters, clinical laboratory tests and physical examination.
All subjects underwent a complete physical examination and their medical history and demographic information collected. The body systems evaluated included general appearance, skin, lymphatic, head and neck, EENT (eyes, ears, nose, and throat), chest and lungs, cardiovascular, abdomen, extremities, musculoskeletal and neuromuscular. Vital signs were measured. Blood pressure, pulse, respiratory rate and oral temperature; were taken. Blood and urine samples were collected at screening, pre-baseline, baseline, during the treatment period, and Day 8 follow-up visit; the following clinical laboratory evaluations were conducted. […]

As for `CC(C)(C)OC(=O)N1CCN(Cc2ccn(Cc3ccc(Cl)cc3)c(=O)c2O)CC1` [Compound 1, tert-butyl 4-((1-(4-chlorobenzyl)-3-hydroxy-2-oxo-1,2-dihydropyridin-4-yl)methyl)piperazine-1-carboxylate], the Safety and tolerability result was “safe and well tolerated”.
